Measured values taken from patent US10736326B2, “Nematode dispersant composition and method” (PHERONYM, INC., priority 2016, dated 2020).
Entries after “also recorded” stand apart in the source; their conditions may differ.

System: S. feltiae infective juveniles (IJ)
Assay: Dispersal assay with S. feltiae infective juveniles on agar plates
Type: in vivo, Steinernema feltiae
Details: S. feltiae IJs; for dispersal activity in combination with fractions B and C: ascr#11 1.3 pmol/μl, FIG. 1C, 1D; for dispersal activity by itself: physiologically relevant concentration (ascr#9 40.3 pmol/μl, ascr#11 1.3 pmol/μl), FIG. 1B
Procedure: The dispersal assay for the activity guided purification in FIG. 1 used S. feltiae IJs that were washed with MILLI-Q water three times and incubated in 6 cm petri dishes for 36 h with a small amount (4-5 ml) of MILLI-Q water. The following day, nematodes were placed on a 10.7 g/L agar with gel strength 1010 g/cm^2 (PhytoTechnology Lab. Shawnee Mission, Kans.). Nematode behavior was assayed on multiple plates with internal plate replicates to rule out the possibility that behavior was affected by plate composition. Approximately 300 IJs in 10 μl water were placed on an agar medium and the test compounds or extracts were placed into 1-2 μl to the nematode suspension. Upon absorption (15-20 min) of the liquid, the freely moving nematodes were video-recorded for 5-10 min. Dispersal behavior is temperature and season dependent. During winter, the assay is effective at RT (22±1° C.). During summer, the assay requires a temperature-controlled environment due to effects on nematode behavior above 23° C.
Activity guided fractionation was conducted as described by Srinivasan et al 2008 with modifications. A total of 33 insect host cadavers (G. mellonella larvae) were placed into 70% EtOH and stored at −20° C. until extraction. The insect cadavers were homogenized using 1 g of ceramic zirconium beads (1.25 mm) (ZIRMIL) in 2 ml tubes for 37 sec using a Precellys24 (http://www.precellys.com) homogenizer. Samples were centrifuged for 15 min at 18400 rcf and the supernatant was lyophilized and resuspended in MILLI-Q water. The dispersal activity of nematodes was tested using the dispersal assay described herein above and a physiologically relevant concentration of insect host cadaver extract or fractionated extract. To facilitate calculations for physiologically relevant concentration of the ascarosides, wax worm volume was estimated at 200 μl; the average weight of wax worms was 232 (+/−57 mg; n=19).
The first reverse-phase solid-phase extraction was performed using Sep-Pak Plus C18 cartridges (Waters corporation, Milford, Mass.). The initially collected flow through was termed Fraction A. Thereafter, the column was washed with water, collected and saved. Subsequently, the column was eluted with 50% (Fraction B) and 90% MeOH (Fraction C). The fractions were tested for dispersal activity both individually and in combination. Also individual fractions were analyzed by LC-MS. Fraction A contained ascr#9, which was collected by LC-MS and tested for activity with Fraction B+C.
A total of 33 insect host cadavers ([…] larvae) were placed into 70% EtOH and were homogenized using 1 g of ceramic zirconium beads (1.25 mm) (ZIRMIL) in 2 ml tubes for 37 sec using a Precellys24 (http://www.precellys.com) homogenizer. Samples were centrifuged for 15 min at 18400 rcf and the supernatant was lyophilized and resuspended in MILLI-Q water. The dispersal activity of nematodes was tested using the dispersal assay described herein above. The extracts were resuspended in water as 10 times concentrated. The average weight of insect host is estimated 200 microL and therefore the dry cadavers extract from 1 insect equivalent was diluted in 20 microL of water. One microL of the concentrated extracts was added to the 10 ul of IJ water suspension.

SMILES | dispersal activity in combination with fractions B and C (listed as natural ascr#9) | dispersal activity in combination with fractions B and C (listed as synthetic ascr#9) | dispersal activity by itself | dispersal activity in combination with fractions B and C
C[C@H](CCC(=O)O)O[C@@H]1O[C@@H](C)[C@H](O)C[C@H]1O [ascr#9] | active | confirms the active component | not active by themselves | 
C[C@H](CC(=O)O)O[C@@H]1O[C@@H](C)[C@H](O)C[C@H]1O [ascr#11] |  |  | not active by themselves | sufficient to cause dispersal; also recorded: active with the other two fractions
